TGI data for 16 molecules are collected here from PubChem BioAssay (NCI).

The term TGI denotes the concentration at which net growth stops. A high value points to less potent growth arrest.

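Five concentrations, 48 hours, 96-well plates. TGI denotes the concentration required for complete inhibition of growth.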

Common to all, as to assay: DTP human tumour cell line panel, 48 h
The subject of experiment [1] is RPMI-8226 leukemia.
The subject of experiment [2] is HOP-62 NSCLC.
The test system of experiment [3] is SNB-75 CNS.
For experiment [4], the system named is M14 melanoma.
The test system of experiment [5] is A549 NSCLC.
The subject of experiment [6] is MDA-MB-231 breast.
Experiment [7] has as its system MDA-MB-435.
Experiment [8] concerns IGROV1 ovarian.
Experiment [9] has as its system BT-549 breast.
The test system of experiment [10] is CCRF-CEM leukemia.
The subject of experiment [11] is OVCAR-4 ovarian.
In experiment [12] the test system is HCT-15 colon.
Experiment [13] concerns MALME-3M melanoma.
Experiment [14] deals with HS 578T breast.
Experiment [15] concerns PC-3 prostate.
Experiment [16] has as its system NCI-H226 lung.
Experiment [17] has as its system SNB-19 CNS.
The test system of experiment [18] is LOX IMVI melanoma.
Experiment [19] deals with MCF7 breast.
Experiment [20] concerns SF-295 CNS.

As for `CCc1nc2ccc(N=NN(C)C)cc2[nH]1`, the TGI in experiment [1], in experiment [2], in experiment [3], in experiment [4], in experiment [5] and in experiment [6] was above 100 µM throughout. Besides, the TGI in experiment [7], in experiment [8], in experiment [9], in experiment [10], in experiment [11] and in experiment [12] was above 100 µM each time. The TGI in experiment [13], in experiment [14], in experiment [15], in experiment [16] and in experiment [17] was above 100 µM each time.

As for `CC[C@]1(Cc2ccc(OC)c(OC)c2)[C@@H]2C[C@@H](C3OCCO3)ON2O[C@H](OC2CCCC2(c2ccccc2)c2ccccc2)[C@@H]1OC(C)=O` (some centres undefined), the TGI in experiment [2] is 41.5 µM; in experiment [3], 46.3 µM; in experiment [4], 39.6 µM; in [5] it was 79.5 µM; in experiment [6], above 100 µM; in experiment [7], 46.9 µM. Also, the TGI in experiment [8] stood at 50.1 µM; in [9], 55.9 µM; in experiment [18], 53.9 µM; in experiment [10], 60.8 µM; in experiment [19] it was 41.1 µM; in experiment [12], 30.3 µM. The TGI in [15] was 63.8 µM; in experiment [20], 39.1 µM; in [16], 36.5 µM; in experiment [17], 36.9 µM.

As to `CC(=O)Nc1ccc2cc(C)c(=O)[nH]c2n1`, the TGI in experiment [1], in experiment [3], in [4], in [5], in [6] and in experiment [7] was above 100 µM in each case. The TGI in [8], in [9], in experiment [10], in experiment [11], in [12] and in [13] was above 100 µM in each case. Further, the total growth inhibition concentration (TGI) in [14], in experiment [15], in [20] and in experiment [17] was above 100 µM in each case.

As for `CC(C)C[C@H]1[C@@H](OCc2ccccc2)COS(=O)N1[C@H](C)c1ccccc1` (some centres undefined), the TGI in [1] is 58.4 µM; in [2] it was 67.4 µM; in experiment [3] it was above 100 µM; in experiment [4], 29.5 µM; in [5], above 100 µM; in [6], 65.2 µM. The TGI in experiment [7] was above 100 µM; in [8], above 100 µM; in experiment [9] it was above 100 µM; in experiment [18] it was 28.2 µM; in [10], 36.4 µM; in experiment [12], above 100 µM. Further, the TGI is 48.3 µM in [13]; 38.6 µM in [14]; above 100 µM in [15]; 34.3 µM in [20]; 36 µM in [16]; above 100 µM in [17].

Consider `O=C1C[C@H]2[C@@H](O1)[C@@H](O)CN1C(=O)c3ccccc3[C@H]21`, for which the TGI in [1], in [2], in experiment [3], in experiment [4], in experiment [5] and in experiment [6] was above 100 µM in each case. Further, the TGI in [7], in experiment [8], in [9], in experiment [18], in [10] and in [19] was above 100 µM each time. Besides, the TGI in experiment [11], in [12], in experiment [13], in [15], in experiment [20] and in experiment [16] was above 100 µM in each case. Further, the TGI in [17] is above 100 µM.

For the molecule `COc1ccc(C(O)c2nccn2C)c(OC)c1` (centres undefined), the TGI in experiment [1], in [2], in experiment [3], in [4], in experiment [5] and in experiment [8] was above 100 µM in each case. Moreover, the TGI in [9], in [10], in experiment [19], in experiment [11], in experiment [12] and in [13] was above 100 µM in each case. Further, the concentration for total growth inhibition (TGI) in experiment [15], in experiment [20], in experiment [16] and in experiment [17] was above 100 µM throughout.

As to `CC(C)(C)NC(=O)N1N=C(c2ccccc2)C1c1ccccc1` (centres undefined), the TGI in [1] was 46 µM; in [3], above 100 µM; in [4], above 100 µM; in experiment [5], above 100 µM; in experiment [6], above 100 µM; in experiment [8] it was above 100 µM. Also, the TGI in [9] was above 100 µM; in experiment [18], above 100 µM; in experiment [10] it was above 100 µM; in experiment [19], above 100 µM; in experiment [11], above 100 µM; in experiment [12] it was 75.2 µM. Also, the TGI was 45.6 µM in experiment [13]; above 100 µM in experiment [14]; 56.5 µM in experiment [15]; above 100 µM in experiment [20]; above 100 µM in experiment [16]; above 100 µM in experiment [17].

For `COC(=O)C1C=CN(N(C)C)C2=C1C(=O)c1c(O)cccc1C2=O` (centres undefined), the concentration for total growth inhibition (TGI) in experiment [1] stood at 5.97 µM; in [2], 8.42 µM; in experiment [3], 3.19 µM; in [5], 6.44 µM; in experiment [6], 5.79 µM; in [8], 5.63 µM. For the same molecule, the TGI in experiment [9] was found to be 3.86 µM; in experiment [10] it was 5.04 µM; in experiment [19] it was 6.38 µM; in experiment [11], 5.57 µM; in experiment [12], 5.16 µM; in experiment [13], 2.93 µM. In addition, the TGI in experiment [14] was 7.58 µM; in experiment [15], above 100 µM; in experiment [20] it was 3.31 µM; in experiment [16], 3.94 µM; in experiment [17] it was 5.58 µM.

As to `CC1(C)OC2C(O)CN3CCS[C@H]3C2O1` (some centres undefined), the TGI in [1], in experiment [2], in experiment [3], in experiment [4], in experiment [5] and in experiment [6] was above 100 µM each time. Also, the TGI in [7], in experiment [8], in experiment [9], in experiment [18], in experiment [10] and in experiment [11] was above 100 µM each time. Besides, the TGI in experiment [12], in experiment [13], in [14], in experiment [15], in experiment [20] and in experiment [16] was above 100 µM each time. This molecule registered a TGI in [17] above 100 µM.

In the case of `O=C1NC(=S)NNC12c1ccccc1-c1ccccc12`, the TGI in experiment [1], in experiment [2], in [3], in [4], in experiment [5] and in experiment [6] was above 10 µM in each case. Further, the TGI in experiment [8], in experiment [9], in [18], in experiment [10], in [19] and in [11] was above 10 µM each time. The TGI in experiment [12], in experiment [13], in [14] and in [16] was above 10 µM in each case.

Turning to `CN(CCN(C)C(=S)NN)C(=S)NN`, the TGI in experiment [1], in [2], in experiment [3], in [4], in experiment [5] and in experiment [6] was above 100 µM in each case. The TGI in [7], in experiment [8], in experiment [9], in [18], in experiment [10] and in experiment [11] was above 100 µM in each case. Moreover, the TGI in experiment [13], in experiment [14], in experiment [15], in [20] and in [17] was above 100 µM each time.

Regarding `O=C(NC(CO)Cc1ccc(Oc2cc(CC(CO)NC(=O)OCc3ccccc3)ccc2OC(=O)OCc2ccccc2)cc1)OCc1ccccc1` (centres undefined), the TGI in experiment [1] is 31 µM; in experiment [2], 52.6 µM; in experiment [3] it was 51.1 µM; in [4], 55.1 µM; in [5], above 100 µM; in experiment [7] it was 45 µM. Also, the TGI is 46.6 µM in experiment [8]; 38.7 µM in experiment [9]; 32.9 µM in experiment [18]; above 100 µM in experiment [10]; 26.8 µM in [19]; 65.3 µM in experiment [11]. For the same molecule, the TGI is above 100 µM in experiment [12]; 31.5 µM in experiment [13]; 28.4 µM in experiment [14]; 32.7 µM in experiment [15]; 35.2 µM in [20]; 40.7 µM in [16]. This molecule also displayed a TGI in [17] above 100 µM.

`CCN(CC)C(=S)SS(=O)(=O)c1ccc(F)cc1`: the concentration for total growth inhibition (TGI) in experiment [1] is 55.5 µM; in [2], above 100 µM; in [4] it was 60.5 µM; in [6], above 100 µM; in experiment [7] it was above 100 µM; in [9], above 100 µM. The TGI is 41.7 µM in [18]; above 100 µM in experiment [11]; above 100 µM in [12]; 68.4 µM in [13]; above 100 µM in experiment [14]; above 100 µM in [20]. Also, the TGI in experiment [16] and in experiment [17] was above 100 µM throughout.

In the case of `Cc1ccsc1/C=N/Nc1ccc2ccccc2n1`, the TGI was above 100 µM in [1]; 68.8 µM in experiment [2]; above 100 µM in experiment [3]; above 100 µM in [4]; above 100 µM in experiment [5]; above 100 µM in experiment [7]. Further, the TGI is 79.3 µM in experiment [8]; above 100 µM in experiment [9]; above 100 µM in experiment [18]; above 100 µM in experiment [10]; 32.3 µM in [19]; above 100 µM in experiment [11]. Further, the TGI was above 100 µM in [12]; above 100 µM in [14]; above 100 µM in experiment [15]; 31 µM in experiment [20]; above 100 µM in experiment [16]; above 100 µM in experiment [17].

Consider `COc1ccc(-c2nc(SCC(=O)N/N=C/c3ccc(O)c(OC)c3)[nH]c2-c2ccc(OC)cc2)cc1`, for which the TGI in [2] was 71.7 µM; in [3], above 100 µM; in experiment [4], 56.6 µM; in experiment [5], above 100 µM; in experiment [6], 84.5 µM; in experiment [7] it was above 100 µM. Also, the TGI in experiment [9] is 44.1 µM; in experiment [18], 46.7 µM; in [10], 92.2 µM; in experiment [19] it was 33.6 µM; in experiment [11], above 100 µM; in experiment [12], 82.8 µM. The TGI in experiment [13] was 81.8 µM; in experiment [15], above 100 µM; in experiment [20] it was 46.5 µM; in [17], above 100 µM.

`O=P(O)(Cc1ccccc1)c1ccccc1-c1ccccc1`: the TGI in experiment [2], in experiment [3], in experiment [4], in experiment [5], in experiment [6] and in experiment [8] was above 100 µM throughout. For the same molecule, the TGI in [9], in [18], in experiment [10], in experiment [19], in experiment [11] and in [12] was above 100 µM throughout. Moreover, the TGI in experiment [13], in [14], in [15], in [20], in experiment [16] and in experiment [17] was above 100 µM throughout.
